Residues, ends and D or L forms follow the SMILES beside them.
Row | melting point | Compound
1 | 208 to 210 °C | CCOC(=O)[C@H](C)NC(=O)[C@@H](NC(=O)Cc1ccccc1)c1ccccc1 [Example 108, N-[N-(Phenylacetyl)-L-phenylglycinyl]-L-alanine Ethyl Ester] (HELM PEPTIDE1{[O=C(Cc1ccccc1)[*:2]].[Phg].A.[CCO[*:1]]}$$$$V2.0)
2 | 135 to 138 °C | CC(C)COC(=O)[C@H](C)NC(=O)[C@H](Cc1ccccc1)NC(=O)CC(C)C [Example 84, N-[N-(Isovaleryl)-L-phenylalaninyl]-L-alanine iso-butyl Ester]
3 | 128 to 131 °C | COC(=O)[C@H](Cc1ccccc1)NC(=O)[C@H](C)NC(=O)CC1CC1 [Example 72, N-[N-(Cyclopropylacetyl)-L-alaninyl]-L-phenylalanine Methyl Ester]
4 | 101 to 103 °C | COC(=O)[C@H](Cc1cccnc1)NC(=O)[C@H](C)NC(=O)Cc1cc(F)cc(F)c1 [Example 20, Methyl N-[N-(3,5-Difluorophenylacetyl)-L-alaninyl]-(S)-2-amino-3-(3-pyridyl)propionate]
5 | 128 °C | CC(C)C[C@H](NC(=O)[C@H](C)NC(=O)Cc1cc(F)cc(F)c1)C(=O)OC(C)(C)C [Example 40, N-[N-(3,5-Difluorophenylacetyl)-L-alaninyl]-L-leucine tert-Butyl Ester]
6 | 150 to 152 °C | COC(=O)[C@H](Cc1ccccc1)NC(=O)[C@H](C)NC(=O)Cc1cccnc1 [Example 131, N-[N-(3-Pyridylacetyl)-L-alaninyl]-L-phenylalanine Methyl Ester]
7 | 138.7 to 140 °C | CC[C@H](NC(=O)Cc1cc(F)cc(F)c1)C(=O)N[C@H](C(=O)OC(C)(C)C)c1ccccc1 [Example 191, N-[N-(3,5-Difluorophenylacetyl)-(S)-2-aminobutanoyl]-L-phenylglycine tert-Butyl Ester]
8 | 190.8 °C | CC(C)(C)OC(=O)[C@@H](NC(=O)[C@@H](NC(=O)CC1CCCC1)c1ccccc1)c1ccccc1 [Example 265, N-[N-(Cyclopentylacetyl)-L-phenylglycinyl]-L-phenylglycine tert-Butyl Ester]
9 | 177 to 178 °C | COC(=O)[C@@H](NC(=O)[C@H](C)NC(=O)Cc1cc(F)cc(F)c1)c1ccc2cc(OC)ccc2c1 [Example 182, Methyl N-[N-(3,5-Difluorophenylacetyl)-L-alaninyl]-(S)-2-amino-2-(6-methoxy-2-naphthyl)acetate]
10 | 112 to 115 °C | COC(=O)[C@@H](NC(=O)[C@H](C)NC(=O)Cc1ccccc1)C(C)C [Example 207, N-[N-(Phenylacetyl)-L-alaninyl]-L-valine Methyl Ester] (HELM PEPTIDE1{[O=C(Cc1ccccc1)[*:2]].A.V.[CO[*:1]]}$$$$V2.0)
11 | 120 °C | CC[C@H](NC(=O)[C@H](C)NC(=O)Cc1ccccc1)C(=O)OC [Example 208, Methyl N-[N-(Phenylacetyl)-L-alaninyl]-2-(S)-aminobutanoate] (HELM PEPTIDE1{[O=C(Cc1ccccc1)[*:2]].A.[Abu].[CO[*:1]]}$$$$V2.0)
12 | 189 to 190 °C | COC(=O)C(NC(=O)[C@H](C)NC(=O)Cc1cc(F)cc(F)c1)c1cc2cc(Cl)ccc2s1 (stereo partly drawn) [Example 173, Methyl N-[N-(3,5-Difluorophenylacetyl)-L-alaninyl]-2-amino-2-(5-chlorobenzothiophen-2-yl)acetate]
13 | 103 to 106 °C | CC[C@H](NC(=O)[C@H](C)NC(=O)Cc1cc(F)cc(F)c1)C(=O)OC [Example 160, Methyl N-[N-(3,5-difluorophenylacetyl)-L-alaninyl]-(S)-2-aminobutanoate]
14 | 188 to 189.5 °C | CCCC[C@H](NC(=O)Cc1cc(F)cc(F)c1)C(=O)N[C@H](C(=O)OC)c1ccccc1 [Example 252, N-[N-(3,5-Difluorophenylacetyl)-L-norleucinyl]-L-phenylglycine Methyl Ester]
15 | 222.8 °C | COC(=O)[C@@H](NC(=O)[C@@H](NC(=O)Cc1cc(F)cc(F)c1)c1ccccc1)c1ccccc1 [Example 199, N-[N-(3,5-Difluorophenylacetyl)-L-phenylglycinyl]-L-phenylglycine Methyl Ester]
16 | 198 to 201 °C | CCOC(=O)[C@H](C)NC(=O)[C@@H](NC(=O)CC(C)C)c1ccccc1 [Example 74, N-[N-(Isovaleryl)-L-phenylglycinyl]-L-alanine Ethyl Ester] (HELM PEPTIDE1{[CC(C)CC(=O)[*:2]].[Phg].A.[CCO[*:1]]}$$$$V2.0)
17 | 123 to 125 °C | CCOC(=O)C(NC(=O)[C@H](C)NC(=O)Cc1cc(F)cc(F)c1)c1ccccn1 (stereo partly drawn) [Example 65, Ethyl N-[N-(3,5-Difluorophenylacetyl)-L-alaninyl]-2-amino-2-(2-pyridyl)acetate]
18 | 126.5 to 127.5 °C | CCOC(=O)C(NC(=O)[C@H](C)NC(=O)Cc1cc(F)cc(F)c1)c1ccc2sccc2c1 (stereo partly drawn) [Example 177, Ethyl N-[N-(3,5-Difluorophenylacetyl)-L-alaninyl]-2-amino-2-(benzothiophen-5-yl)acetate]
19 | 139 to 142 °C | COC(=O)[C@H](Cc1ccccc1)NC(=O)[C@H](C)NC(=O)CC1=CCCCC1 [Example 69, N-[N-(Cyclohex-1-enylacetyl)-L-alaninyl]-L-phenylalanine Methyl Ester]
20 | 133 to 138 °C | C[C@H](NC(=O)CC1CCCC1)C(=O)N[C@H](C(=O)OC(C)(C)C)c1ccccc1 [Example 328, N-[N-(Cyclopentaneacetyl)-L-alaninyl]-L-phenylglycine tert-Butyl Ester]
21 | 230.8 °C | COC(=O)[C@@H](NC(=O)[C@H](NC(=O)Cc1cc(F)cc(F)c1)c1cccs1)c1ccccc1 [Example 259, N-[N-(3,5-Difluorophenylacetyl)-(S)-2-amino-2-(thien-2-yl)acetyl]-L-phenylglycine Methyl Ester]
22 | 228.8 °C | CC[C@H](C)[C@H](NC(=O)Cc1cc(F)cc(F)c1)C(=O)N[C@H](C(=O)OC)c1ccccc1 [Example 255, N-[N-(3,5-Difluorophenylacetyl)-L-isoleucinyl]-L-phenylglycine Methyl Ester]
23 | 137 to 139 °C | COC(=O)[C@H](Cc1ccccc1)NC(=O)[C@H](C)NC(=O)Cc1ccccn1 [Example 132, N-[N-(2-Pyridylacetyl)-L-alaninyl]-L-phenylalanine Methyl Ester]
24 | 142 to 143 °C | CCCC[C@H](NC(=O)[C@H](C)NC(=O)Cc1cc(F)cc(F)c1)C(=O)OC [Example 1, Methyl N-[N-(3,5-Difluorophenylacetyl)-L-alaninyl]-(S)-2-aminohexanoate]
25 | 187.5 °C | CC(C)(C)OC(=O)[C@@H](NC(=O)[C@@H](NC(=O)CC1CC1)c1ccccc1)c1ccccc1 [Example 264, N-[N-(Cyclopropylacetyl)-L-phenylglycinyl]-L-phenylglycine tert-Butyl Ester]
